Assay [1] concerns Staphylococcus aureus ATCC 29213. The assay can be described thus: In vitro antibacterial activity, CLSI M07-A10 dilution (MIC). It is filed as cell-based. The conditions noted are these: ATCC29213.
Assay [2] has as its system Staphylococcus aureus ATCC BAA-1556 (MERSA resistant). The description is as above. The format is cell-based. The conditions noted are these: ATCCBAA1556.
The test system of assay [3] is Staphylococcus epidermidis. Described as above. The format is cell-based.
In assay [4] the test system is Bacillus subtilis MTCC 441. The assay is described as above. It is filed as cell-based. The conditions noted are these: MTCC441.
The test system of assay [5] is Enterococcus faecium ATCC 35667. The description is as above. It is filed as cell-based. The conditions noted are these: ATCC35667.
The subject of assay [6] is Enterococcus faecium ATCC 51559 (VRE resistant). Described as above. It is filed as cell-based.
The test system of assay [7] is Klebsiella pneumonia MTCC 618. The assay is described as above. The format is cell-based. The conditions noted are these: Klebsiella pneumoniae, MTCC618.
For assay [8], the system named is Escherichia coli MTCC 443. The assay is described as above. It is filed as cell-based. The conditions noted are these: MTCC443.
Assay [9] deals with Pseudomonas aeruginosa MTCC 741. The assay is described as above. It is filed as cell-based. The conditions noted are these: MTCC741.
Assay [10] relates to Mycobacterium tuberculosis H37Rv strain. Put plainly: Anti-tubercular alamar blue microplate assay (MIC). The format is cell-based. The conditions noted are these: 168 h, M. tuberculosis H37Rv, seven days at 37° C., read-out: anti-mycobacterial activity (MIC). Background: Resazurin is reduced to fluorescent resorufin, in cell work by metabolically active cells.
For the next assay, the target named is T1, DNA gyrase from E. coli (Escherichia coli, UniProt P0AES4+P0AES6).
T1 construct: purchased Inspiralis
The assay can be described thus: Inhibitory activity on E. coli DNA gyrase (Inspiralis assay). It is filed as biochemical. As for the experimental part: Inhibitory potencies were investigated utilizing the Inspiralis assay on streptavidin-coated 96-well microtiter plates. First, the plates were rehydrated with buffer (20 mM Tris-HCl with pH 7.6, 0.01% w/v BSA, 0.05% v/v Tween 20, 137 mM NaCl) and the biotinylated oligonucleotide was then immobilized. After washing off the unbound oligonucleotide, the enzyme test was performed. The reaction volume of 30 μL in buffer (35 mM Tris×HCl with pH 7.5, 4 mM MgCl2, 24 mM KCl, 2 mM DTT, 1.8 mM spermidine, 1 mM ATP, 6.5% w/v glycerol, 0.1 mg/mL albumin) contained 1.5 U of DNA gyrase from E. coli, 0.75 μg of relaxed pNO1 plasmid, and 3 μL solution of the inhibitor in 10% DMSO and 0.008% Tween 20. Reaction solutions were incubated at 37° C. for 30 min. After that, the TF buffer (50 mM NaOAc with pH 5.0, 50 mM NaCl and 50 mM MgCl2) was added to terminate the enzymatic reaction. After additional incubation for 30 min at rt, during which biotinoligonucleotide-plasmid triplex was formed, the unbound plasmid was washed off using TF buffer and SybrGOLD in T10 buffer (10 mM Tris HCl with pH 8.0 and 1 mM EDTA) was added. The fluorescence was measured with a microplate reader (BioTek Synergy H4, excitation: 485 nm, emission: 535 nm). Initial screening was done at 100 or 10 μM concentration of inhibitors. […] GraphPad Prism software was used to calculate the IC50 values. […]

Data on two compounds can be found in patent US11731980B1, “Furo[3,4-b]quinolone compounds as antibacterial agents” (KING FAISAL UNIVERSITY, priority 2023, dated 2023).

Structures are written as SMILES. pIC50: −log10 of the molar value. Values after ≈ are worked out from the molar mass of the structure shown. Where two headings read alike, the source gives them in different places.

T1 sequence (P0AES4 whole entry, one chain of several): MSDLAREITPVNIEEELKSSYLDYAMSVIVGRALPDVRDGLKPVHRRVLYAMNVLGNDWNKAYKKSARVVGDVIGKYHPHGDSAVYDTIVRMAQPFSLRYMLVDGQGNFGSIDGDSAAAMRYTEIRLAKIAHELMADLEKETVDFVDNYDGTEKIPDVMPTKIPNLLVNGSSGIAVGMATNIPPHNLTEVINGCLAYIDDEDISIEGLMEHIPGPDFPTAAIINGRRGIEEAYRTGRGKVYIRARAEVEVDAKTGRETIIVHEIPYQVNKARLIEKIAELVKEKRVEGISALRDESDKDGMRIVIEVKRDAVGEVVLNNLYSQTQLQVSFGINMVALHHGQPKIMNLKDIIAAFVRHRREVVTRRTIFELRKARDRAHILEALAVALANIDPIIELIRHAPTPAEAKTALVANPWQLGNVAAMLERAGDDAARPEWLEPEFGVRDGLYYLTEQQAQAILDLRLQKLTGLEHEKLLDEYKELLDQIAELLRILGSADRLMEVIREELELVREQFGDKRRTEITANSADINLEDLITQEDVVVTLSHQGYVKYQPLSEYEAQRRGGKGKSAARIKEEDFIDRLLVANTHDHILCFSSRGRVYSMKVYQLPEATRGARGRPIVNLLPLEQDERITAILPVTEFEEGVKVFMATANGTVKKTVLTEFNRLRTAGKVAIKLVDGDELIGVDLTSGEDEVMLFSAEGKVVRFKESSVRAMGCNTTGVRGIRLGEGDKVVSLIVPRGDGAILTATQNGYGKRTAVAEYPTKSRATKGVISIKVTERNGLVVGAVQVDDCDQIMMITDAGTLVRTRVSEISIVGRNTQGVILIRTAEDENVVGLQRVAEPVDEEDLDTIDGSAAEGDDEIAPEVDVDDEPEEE

In the case of `CN[C@H](CC(C)C)C(=O)N[C@H]1C(=O)N[C@@H](CC(N)=O)C(=O)N[C@H]2C(=O)N[C@H]3C(=O)N[C@H](C(=O)N[C@H](C(=O)O)c4cc(O)cc(O)c4-c4cc3ccc4O)[C@H](O)c3ccc(c(Cl)c3)Oc3cc2cc(c3O[C@@H]2O[C@H](CO)[C@@H](O)[C@H](O)[C@H]2O[C@H]2C[C@](C)(N)[C@H](O)[C@H](C)O2)Oc2ccc(cc2Cl)[C@H]1O` [Vancomycin, reference compound], the MIC was 1 mg/L (≈ 0.69 µM) in assay [1] (Staphylococcus aureus); 1 mg/L (≈ 0.69 µM) in assay [2] (Staphylococcus aureus); 1 mg/L (≈ 0.69 µM) in assay [3]; 0.5 mg/L (≈ 0.345 µM) in [4] (Bacillus subtilis); 0.5 mg/L (≈ 0.345 µM) in [5] (Enterococcus faecium); above 128 mg/L in [6] (Enterococcus faecium). Moreover, the MIC in assay [7], in assay [8] (Escherichia coli) and in [9] (Pseudomonas aeruginosa) was above 128 mg/L throughout.
Consider `CCCCCN(C)Cc1cc(-c2c3c(nc4cc(NC(=O)C5CC5)ccc24)COC3=O)ccc1C(=O)O` [Compound 8, 4-(6-(cyclopropanecarboxamido)-1-oxo-1,3-dihydrofuro[3,4-b]quinolin-9-yl)-2-((methyl(pentyl)amino)methyl)benzoic acid], for which the minimum inhibitory concentration (MIC) in [1] (Staphylococcus aureus ATCC 29213, read-out: MIC) was 16 mg/L (≈ 31.9 µM); in assay [2] (Staphylococcus aureus ATCC BAA-1556 (MERSA resistant), read-out: MIC), 16 mg/L (≈ 31.9 µM); in [3] (read-out: MIC), 16 mg/L (≈ 31.9 µM); in [4] (Bacillus subtilis MTCC 441, read-out: MIC) it was 8 mg/L (≈ 15.9 µM); in assay [5] (Enterococcus faecium ATCC 35667, read-out: MIC) it was 8 mg/L (≈ 15.9 µM); in assay [6] (Enterococcus faecium ATCC 51559 (VRE resistant), read-out: MIC), 16 mg/L (≈ 31.9 µM). For the same compound, the MIC in assay [7] (Klebsiella pneumonia MTCC 618, read-out: MIC) amounted to 8 mg/L (≈ 15.9 µM); in assay [8] (Escherichia coli MTCC 443, read-out: MIC) it was 16 mg/L (≈ 31.9 µM); in assay [9] (Pseudomonas aeruginosa MTCC 741, read-out: MIC) it was 8 mg/L (≈ 15.9 µM); in [10] it was 4 mg/L (≈ 7.97 µM). The pIC50 at DNA gyrase from E. coli is 6.26.

In general, MIC refers to the lowest concentration found to suppress growth. For orientation: pIC50 means −log10 of the IC50, conventionally taken in molar units.
